Source: article PMC10447463, “Data-mining unveils structure–property–activity correlation of viral infectivity enhancing self-assembling peptides” (Nature Communications, 2023)
Read-outs that look alike come from different tables or passages of the source.

Columns and labels:
[1] = Conversion rate (CR) assay with fluorescamine; format: physicochemical; design: key to CR: % = 100−100×filtrate/original fluorescence intensity
How it was run: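 In the conversion assay, unconverted peptide passing a 3 kDa membrane at 4 °C was labelled with fluorescamine alongside unfiltered PNF, both in DMSO, and read at 365/470 nm after 20 min at room temperature. β-sheet content relied on ATR FT-IR of lyophilized fibril powder.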

[2] = Aggregate analysis by widefield fluorescence microscopy; format: physicochemical; conditions: for Number of Aggregates / Aggregate Number: ThT-stained aggregates > 10 µm2 in 1330 µm × 1330 µm, 1 mg/mL 1 d, diluted to 0.1 mg/mL with 50 µM ThT, 3D object counter ImageJ, triplicate
Experimental: 4 µL of 1 mg/mL peptide fibrils solution is added to a 20 µL, 50 µM ThT–solution in PBS. The mixture is incubated for 15 min at RT to allow binding of ThT dye with β–sheet rich structures. For reference PBS (4 µL) was added instead of peptide fibril solution. The samples were placed in black UV Star® 384 microliter well–plates (Greiner bio–one). Fluorescence spectra were recorded on an Infinite® M1000 PRO microplate reader (Tecan) at λem = 488 nm upon excitation at λex = 440 nm with 10 nm bandwidths and multiple reads per well (3×3). Measurements were repeated in triplicates and averaged with standard deviation. A peptide fibril was considered as ThT-active if the fluorescence intensity was at least twice as strong compared to the control (PBS containing 10% DMSO). Zeta-Potential. For the determination of the surface charge of aggregated peptides zeta-potential measurements were conducted with a Zetasizer Nano ZS, Malvern Instruments. Unless stated otherwise the peptides were dissolved from DMSO (10 mg/mL) in PBS (pH 7.4) to concentration of 1 mg/mL and incubated for 1d at RT. Just before the measurement the 60 µL of the peptides were further diluted in 600 µL KCl (aq, 1 mM) in a 1 mL disposable folded capillary cells (DTS–1060, Zetasizer Nano series, Malvern). The zeta potential of the peptides was derived from the electrophoretic mobility based on the Smoluchowski formula. All measurements were averaged over two individually performed experiments and conducted in triplicates for each sample. Aggregate analysis. […] Furthermore, fluorescence microscopy was conducted by staining 1 µL preformed fibrils (1 mg/mL) with 9 µL ThT (50 µM). Brightfield microscopy was performed simultaneously to evaluate aggregation also for non ThT-active fibrils. The measurements were performed on a Leica DMi8 microscope with 10x air objective and equipped with a Leica MC170 HD camera with a filter setting λem = 527/30 nm upon excitation at λex = 480/40 nm) and processed with the Leica LASX software. To quantify size and number of microscopic aggregation of particles > 10 µm^2 at least 3 independently measured images were analyzed via the 3D object counter analysis tool of ImageJ, v 1.53f51. Sum–frequency generation. The SFG experiments were carried out with a femtosecond Ti: Sapphire amplified laser system (Spitfire Ace, Spectra–Physics, 800 nm, 40 fs, 1 kHz) with 5 W output power. We used 2 W to pump an optical parametric amplifier (TOPAS, light conversion) with a non–collinear difference frequency generation stage to generate broadband IR pulses. Another 1 W of the laser output passed through an etalon to generate narrowband visible pulses (10 cm^-1). The incident angles of the visible and IR beams were 36° and 41° with respect to the surface normal, respectively. The visible (13 µJ) and IR (5 µJ) pulses were overlapped spatially and temporally at the sample position. Subsequently, the generated SFG pulse was guided into a spectrograph (Acton SP 300i, Princeton Instruments), and detected with an EMCCD (Newton, Andor Technology). To avoid IR absorption of water vapor, we purged N2 for the measurement. All spectra were collected in the ssp (denoting s-, s- and p-polarized SFG, visible and IR, respectively) polarization combination. The spectra were normalized to the non–resonant signal taken from z–cut quartz after subtracting a background spectrum.
Table S8 Summary of aggregate analysis from widefield microscopy measurements (Figure S32). The Number of aggregated peptides, the median size area, average size area
and the cumulative total size area of all particles (> 10 µm2) in an area of 1330 µm × 1330 µm was determined via automated 3D object counting (ImageJ) in triplicate
measurements (Std. Dev.).
Aggregate Std. Dev. Std. Dev. Std. Dev. Std. Dev.
Sequence Abs. Inf. / Std. Dev. / Count Rate / Std. Dev. Number Aggregate Median Area Median Area Average Area Average Area Total Area/ Total Area/ […]

[3] = Fig. S7 panel B, conversion rate, fluorescamine assay
[4] = conversion rate, fluorescamine assay

Row | Substance | CR / % [1, 3] | CR [1, 4] | other results
1 | CEIEIQI | 59% | 59 | 
2 | CETMYDKILKNLSRSR | 98.9% | 98.89 | 
3 | CHLHLQL | 96.6% | 96.58 | Number of Aggregates / Aggregate Number [2]: 36
4 | CKFC | 35.9% | 35.92 | 
5 | CKFKFQF | 95.6% | 95.56 | Number of Aggregates / Aggregate Number [2]: 128; Log10 Number Aggregates ([2]; logarithm of averaged number of aggregates in 1330 µm × 1330 µm): 2.108
6 | CKFKFQFNM | 93.5% | 93.52 | Number of Aggregates / Aggregate Number [2]: 170
7 | CKFKFQFNMWQ | 97.5% | 97.52 | 
8 | CKFQC | 33.2% | 33.24 | 
9 | CKIKQIINM | 45% | 45 | 
10 | CKWKWQW |  |  | Number of Aggregates / Aggregate Number [2]: 87
11 | CRFRFQF | 98.1% | 98.13 | 
12 | CRFRVPF | 97.1% | 97.05 | 
13 | HGDKCHGDKC | 37.4% | 37.3627 | 
14 | HGEHGEHGE | 42.9% | 42.88 | 
15 | HIHIQIC | 82.7% | 82.72 | Number of Aggregates / Aggregate Number [2]: 33
16 | HLHLPLL | 37.5% | 37.51 | 
17 | HRRHFRHKITKKK | 44.9% | 44.91 | 
18 | KAKAQA | 0.3% | 0.3138 | 
19 | KAKAQANMWQ | 56.2% | 56.24 | CR / % ([1]; conversion of monomer to nanostructures, 3 kDa MWCO filtration, fluorescamine, ex 365 / em 470 nm, triplicate): 56%
20 | KFKFQF | 67.4% | 67.4 | 

Row | Substance | CR / % [1, 3] | CR [1, 4] | other results
21 | KFKFQFNMWQ | 96.2% | 96.16 | Number of Aggregates / Aggregate Number [2]: 64
22 | KIKIQI | 18.9% | 18.91 | 
23 | KIKIQINM | 64% | 64 | 
24 | KIKIQINMWQ | 94.3% | 94.34 | 
25 | KIKQIIN |  |  | Number of Aggregates / Aggregate Number [2]: 12
26 | KIKQIINM | 43% | 43 | 
27 | KIKQIINMWQ | 90.1% | 90.09 | Number of Aggregates / Aggregate Number [2]: 39
28 | KNERIKNERI | 54.4% | 54.36 | 
29 | KWKWQW |  |  | Number of Aggregates / Aggregate Number [2]: 28
30 | MDQMDQMDQMDQMDQ | 53% | 53.03 | 
31 | MKFKFQF | 86.9% | 86.86 | 
32 | QCKFKFQFNM | 98.9% | 98.94 | 
33 | QCKFKFQFNMWQ | 98.9% | 98.91 | 
34 | QCKIKIQINMWQ | 93.7% | 93.68 | Number of Aggregates / Aggregate Number [2]: 398
35 | QCKIKQIINMWQ [reference compound] | 77% | 76.98 | Conversion Rate / % [1]: 76.98%; Conversion Rate / % ([1]; fluorescamine assay): 76.98%; Avg Area in 3 *(1330 µm *1330 µm) ([2]; Fig S8 panels A, C): 71.85; Log 10 Number of aggregates in 3 * (1330 µm *1330 µm) ([2]; Fig S8 panels A, C): 2.611; Median Area in 3 * (1330 µm *1330 µm) ([2]; Fig S8 panels A, C): 27.89; log Avg Area in 3 * ( (1330 µm *1330 µm)) ([2]; Fig S8 panels A, C): 1.856; log Median Area in 3 * ( (1330 µm *1330 µm)) ([2]; Fig S8 panels A, C): 1.445; log Total Area of all particles in 3 * (1330 µm *1330 µm) ([2]; Fig S8 panels A, C): 4.467; Number of aggregates in 3 * (1330 µm *1330 µm) ([2]; Fig S8 panels A, C, 3 fields of 1330 µm x 1330 µm): 408; Avg Area in 3 *(1330 µm *1330 µm) ([2]; Fig S8 panels B, D, average aggregate area, 3 fields of 1330 µm x 1330 µm): 71.85; Median Area in 3 * (1330 µm *1330 µm) ([2]; Fig S8 panels B, D, median aggregate area, 3 fields of 1330 µm x 1330 µm): 27.89; Total Area of all particles in 3 * (1330 µm *1330 µm) ([2]; Fig S8 panels B, D, total area of all particles, 3 fields of 1330 µm x 1330 µm): 29314.25467; Number of aggregates in 3 * (1330 µm *1330 µm) ([2]; Fig S8 panels B, D, widefield fluorescence microscopy, 3 fields of 1330 µm x 1330 µm): 408; Number of Aggregates / Aggregate Number [2]: 408
36 | RGDKIRGDKI | 48.4% | 48.38 | 
37 | RGECKFKFQF | 98.7% | 98.71 | 
38 | RGEKIKIQINM | 80.3% | 80.28 | 
39 | RLRLTLC | 87.4% | 87.44 | 
40 | SISISRRI | 24.2% | 24.22 | 
